From patent publication US10669276B2, “Fused pyrimidine derivatives” (Hoffmann-La Roche Inc., priority 2016, dated 2020)

Target: γ-secretase (Homo sapiens (Human), UniProt P49768)
Experiment: Cellular γ-secretase assay (Aβ42 secretion, AlphaLisa)
Type: cell-based
Details: inhibition of Aβ42 secretion; human neuroglioma H4 cells overexpressing human APP695 Swedish double mutation; 24 hr compound incubation
Method: Human neuroglioma H4 cells overexpressing human APP695 with the Swedish double mutation (K595N/M596L) were plated at 30,000 cells/well/100 μl in 96-well plates in IMDM media containing 10% FCS, 0.2 mg/l Hygromycin B and incubated at 37° C., 5% CO2.
3-4 hr post plating, compounds are a diluted in media and 50 μl is added as […] concentrate to achieve the final concentration. Compound incubation is performed for 24 hr. Final doses typically range from 4 μM down to 0.0013 μM in half-log steps resulting in an eight point dose response curve. Appropriate controls using vehicle only and reference compound were applied to this assay. The final concentration of Me2SO was 0.4%.
After incubation at 37° C., 5% CO2, the supernatant was subjected to quantification of secreted Aβ42 by the means of an AlphaLisa assay kit (Human Amyloid beta 1-42 Kit: Cat # AL203C, Perkin Elmer). 20 μl of the cell culture supernatant was transferred to an assay plate. Then 10 μl of a mixture of the AlphaLisa coupled capture antibody and the biotinylated detection antibody was added and incubated for 3 hours at room temperature while softly shaking the assay plate. After a further addition of 20 μl of the Donor beads the assay plate was incubated for 30 min at room temperature and constant shaking without exposure to direct light. The assay plate was then read on a Paradigm AlphaLisa Reader using the build-in program with excitation at 680 nm and emission at […]. The measured signals were then used to calculate IC50 values for inhibition of Aβ42 secretion by nonlinear regression fit analysis using XLfit 5.3 software (IDBS).

Row | Structure (SMILES) | EC50
1 | CNc1nc(Nc2ccc(-n3cnc(C)n3)c(F)c2)nc2c1C(C)(C)CN2c1ccc(F)cc1F [Example 24, 7-(2,4-Difluorophenyl)-N2-(3-fluoro-4-(3-methyl-1H-1,2,4-triazol-1-yl)phenyl)-N4,5,5-trimethyl-6,7-dihydro-5H-pyrrolo[2,3-d]pyrimidine-2,4-diamine] | 22 nM
2 | CNc1nc(Nc2cnc(-n3cnc(C)c3)c(F)c2)nc2c1C(C)(C)CN2c1ccc(F)cc1 [Example 25, N2-(5-Fluoro-6-(4-methyl-1H-imidazol-1-yl)pyridin-3-yl)-7-(4-fluorophenyl)-N4,5,5-trimethyl-6,7-dihydro-5H-pyrrolo[2,3-d]pyrimidine-2,4-diamine] | 8 nM
3 | CNc1nc(Nc2cnc(-n3cnc(C)c3)c(F)c2)nc2c1C(C)(C)CN2c1ccc(F)cc1F [Example 26, 7-(2,4-Difluorophenyl)-N2-(5-fluoro-6-(4-methyl-1H-imidazol-1-yl)pyridin-3-yl)-N4,5,5-trimethyl-6,7-dihydro-5H-pyrrolo[2,3-d]pyrimidine-2,4-diamine] | 6 nM
4 | CNc1nc(Nc2ccc(-c3nnc(C)o3)c(OC)c2)nc2c1C(C)(C)CN2c1ccc(F)cc1 [Example 27, 7-(4-Fluorophenyl)-N2-(3-methoxy-4-(5-methyl-1,3,4-oxadiazol-2-yl)phenyl)-N4,5,5-trimethyl-6,7-dihydro-5H-pyrrolo[2,3-d]pyrimidine-2,4-diamine] | 30 nM
5 | COc1cc(Nc2nc(NCCO)c3c(n2)N(c2ccc(F)cc2)CC3(C)C)ccc1-n1cnc(C)n1 [Example 28, 2-((7-(4-Fluorophenyl)-2-((3-methoxy-4-(3-methyl-1H-1,2,4-triazol-1-yl)phenyl)amino)-5,5-dimethyl-6,7-dihydro-5H-pyrrolo[2,3-d]pyrimidin-4-yl)amino)ethanol] | 8 nM
6 | COc1cc(Nc2nc(NCCO)c3c(n2)N(c2ccc(F)cc2)CC3(C)C)cnc1-n1cnc(Cl)c1 [Example 30, 2-((2-((6-(4-Chloro-1H-imidazol-1-yl)-5-methoxypyridin-3-yl)amino)-7-(4-fluorophenyl)-5,5-dimethyl-6,7-dihydro-5H-pyrrolo[2,3-d]pyrimidin-4-yl)amino)ethanol] | 11 nM
7 | Cc1ncn(-c2ccc(Nc3nc(NCCO)c4c(n3)N(c3ccc(F)cc3)CC4(C)C)cc2F)n1 [Example 31, 2-((2-((3-Fluoro-4-(3-methyl-1H-1,2,4-triazol-1-yl)phenyl)amino)-7-(4-fluorophenyl)-5,5-dimethyl-6,7-dihydro-5H-pyrrolo[2,3-d]pyrimidin-4-yl)amino)ethanol] | 15 nM
8 | CNc1nc(Nc2ccc(-n3cnc(C)c3)c(F)c2)nc2c1C(C)(C)CN2c1ccc(F)cc1 [Example 34, N2-(3-Fluoro-4-(4-methyl-1H-imidazol-1-yl)phenyl)-7-(4-fluorophenyl)-N4,5,5-trimethyl-6,7-dihydro-5H-pyrrolo[2,3-d]pyrimidine-2,4-diamine] | 8 nM
9 | CNc1nc(Nc2ccc(-n3cnc(C)c3)c(F)c2)nc2c1C(C)(C)CCN2c1ccc(F)cc1 [Example 37, N2-(3-Fluoro-4-(4-methyl-1H-imidazol-1-yl)phenyl)-8-(4-fluorophenyl)-N4,5,5-trimethyl-5,6,7,8-tetrahydropyrido[2,3-d]pyrimidine-2,4-diamine] | 8 nM
10 | CNc1nc(Nc2ccc(-n3cnc(C)c3)c(F)c2)nc2c1CCN2c1ccc(F)cc1 [Example 38, N2-(3-Fluoro-4-(4-methyl-1H-imidazol-1-yl)phenyl)-7-(4-fluorophenyl)-N4-methyl-6,7-dihydro-5H-pyrrolo[2,3-d]pyrimidine-2,4-diamine] | 6 nM
11 | CNc1nc(Nc2cnc(-n3cnc(C)c3)c(OC)c2)nc2c1C(C)CN2c1ccc(F)cc1 (centres unmarked) [Example 40, 7-(4-Fluorophenyl)-N2-(5-methoxy-6-(4-methyl-1H-imidazol-1-yl)pyridin-3-yl)-N4,5-dimethyl-6,7-dihydro-5H-pyrrolo[2,3-d]pyrimidine-2,4-diamine] | 6 nM
12 | CNc1nc(Nc2ccc(-n3cnc(C)n3)c(OC)c2)nc2c1C(C)(C)CN2c1cccc(F)c1F [Example 41, 7-(2,3-Difluorophenyl)-N2-(3-methoxy-4-(3-methyl-1H-1,2,4-triazol-1-yl)phenyl)-N4,5,5-trimethyl-6,7-dihydro-5H-pyrrolo[2,3-d]pyrimidine-2,4-diamine] | 9 nM
13 | CNc1nc(Nc2ccc(-n3cnc(C)c3)c(F)c2)nc2c1C(C)(C)CN2c1ccc(F)cc1Cl [Example 45, 7-(2-Chloro-4-fluorophenyl)-N2-(3-fluoro-4-(4-methyl-1H-imidazol-1-yl)phenyl)-N4,5,5-trimethyl-6,7-dihydro-5H-pyrrolo[2,3-d]pyrimidine-2,4-diamine] | 4 nM
14 | CNc1nc(Nc2ccc(-c3nnc(C)o3)cc2)nc2c1C(C)(C)CN2c1ccc(F)cc1 [Example 47, 7-(4-Fluorophenyl)-N4,5,5-trimethyl-N2-(4-(5-methyl-1,3,4-oxadiazol-2-yl)phenyl)-6,7-dihydro-5H-pyrrolo[2,3-d]pyrimidine-2,4-diamine] | 55 nM

More lines, in order of falling EC50, values ahead:

Row | EC50 | Structure (SMILES)
15 | 14 nM | CNc1nc(Nc2cnc(-n3cnc(C)c3)c(F)c2)nc2c1C(C)(C)CCN2c1ccc(F)cc1 [Example 36, N2-(5-Fluoro-6-(4-methyl-1H-imidazol-1-yl)pyridin-3-yl)-8-(4-fluorophenyl)-N4,5,5-trimethyl-5,6,7,8-tetrahydropyrido[2,3-d]pyrimidine-2,4-diamine]
16 | 13 nM | CNc1nc(Nc2ccc(-n3cnc(C)n3)c(OC)c2)nc2c1C(C)(C)CCN2c1ccc(F)cc1 [Example 35, 8-(4-Fluorophenyl)-N2-(3-methoxy-4-(3-methyl-1H-1,2,4-triazol-1-yl)phenyl)-N4,5,5-trimethyl-5,6,7,8-tetrahydropyrido[2,3-d]pyrimidine-2,4-diamine]
17 | 10 nM | CNc1nc(Nc2ccc(-n3cnc(C)n3)c(OC)c2)nc2c1CCN2c1ccc(F)cc1 [Example 32, 7-(4-Fluorophenyl)-N2-(3-methoxy-4-(3-methyl-1H-1,2,4-triazol-1-yl)phenyl)-N4-methyl-6,7-dihydro-5H-pyrrolo[2,3-d]pyrimidine-2,4-diamine]
18 | 8 nM | CNc1nc(Nc2cnc(-n3cnc(C)c3)c(F)c2)nc2c1C(C)(C)CN2c1cccc(F)c1F [Example 42, 7-(2,3-Difluorophenyl)-N2-(5-fluoro-6-(4-methyl-1H-imidazol-1-yl)pyridin-3-yl)-N4,5,5-trimethyl-6,7-dihydro-5H-pyrrolo[2,3-d]pyrimidine-2,4-diamine]
19 | 6 nM | COc1cc(Nc2nc(NCCO)c3c(n2)N(c2ccc(F)cc2)CC3(C)C)cnc1-n1cnc(C)c1 [Example 29, 2-((7-(4-Fluorophenyl)-2-((5-methoxy-6-(4-methyl-1H-imidazol-1-yl)pyridin-3-yl)amino)-5,5-dimethyl-6,7-dihydro-5H-pyrrolo[2,3-d]pyrimidin-4-yl)amino)ethanol]
20 | 6 nM | CNc1nc(Nc2cnc(-n3cnc(C)c3)c(OC)c2)nc2c1CCN2c1ccc(F)cc1 [Example 33, 7-(4-Fluorophenyl)-N2-(5-methoxy-6-(4-methyl-1H-imidazol-1-yl)pyridin-3-yl)-N4-methyl-6,7-dihydro-5H-pyrrolo[2,3-d]pyrimidine-2,4-diamine]
21 | 6 nM | CNc1nc(Nc2ccc(-n3cnc(C)n3)c(OC)c2)nc2c1C(C)CN2c1ccc(F)cc1 (centres unmarked) [Example 39, 7-(4-Fluorophenyl)-N2-(3-methoxy-4-(3-methyl-1H-1,2,4-triazol-1-yl)phenyl)-N4,5-dimethyl-6,7-dihydro-5H-pyrrolo[2,3-d]pyrimidine-2,4-diamine]
22 | 5 nM | CNc1nc(Nc2ccc(-n3cnc(C)c3)c(F)c2)nc2c1C(C)(C)CN2c1cccc(F)c1F [Example 43, 7-(2,3-Difluorophenyl)-N2-(3-fluoro-4-(4-methyl-1H-imidazol-1-yl)phenyl)-N4,5,5-trimethyl-6,7-dihydro-5H-pyrrolo[2,3-d]pyrimidine-2,4-diamine]
23 | 5 nM | CNc1nc(Nc2cnc(-n3cnc(C)c3)c(OC)c2)nc2c1C(C)(C)CN2c1cccc(F)c1F [Example 44, 7-(2,3-Difluorophenyl)-N2-(5-methoxy-6-(4-methyl-1H-imidazol-1-yl)pyridin-3-yl)-N4,5,5-trimethyl-6,7-dihydro-5H-pyrrolo[2,3-d]pyrimidine-2,4-diamine]
